Legend:
[1] = Partition coefficient of the compound (logP); details: octanol/water
[2] = Distribution coefficient of the compound at pH 7.4 (logD); details: octanol/water
[3] = The ionization constant (pKa) for the compound

Row | SMILES | logP [1] | logD [2] | pKa [3]
1 | CN(C)CCCNC(=O)c1cc(NC(=O)c2cc(NC(=O)c3cc(NC=O)cn3C)cn2C)cn1C | 2.17 | 0.07 | 9.5
2 | CN(C)CCCNC(=O)c1cc(NC(=O)c2cc(NC(=O)c3cc(NC(=O)c4cc(NC(=O)c5cc(NC(=O)CCCN(C)C)cn5C)cn4C)cn3C)cn2C)cn1C | 3.89 | -0.32 | 9.5
3 | CN(C)CCCNC(=O)c1cc(NC(=O)c2cc(NC(=O)/C=C/C(=O)Nc3cc(C(=O)Nc4cc(C(=O)NCCCN(C)C)n(C)c4)n(C)c3)cn2C)cn1C | 3.18 | -1.03 | 9.5

Now from value to compound:

Row | logP [1] | logD [2] | pKa [3] | SMILES
4 | 4.68 | 0.47 | 9.5 | CN(C)CCCNC(=O)c1cc(NC(=O)c2cc(NC(=O)c3cc(NC(=O)c4cc(NC(=O)c5cc(NC(=O)c6cc(NC(=O)CCCN(C)C)cn6C)cn5C)cn4C)cn3C)cn2C)cn1C
5 | 1.47 | -2.74 | 9.5 | CN(C)CCCNC(=O)c1cc(NC(=O)c2cc(NC(=O)CNC(=O)c3cccc(C(=O)NCC(=O)Nc4cc(C(=O)Nc5cc(C(=O)NCCCN(C)C)n(C)c5)n(C)c4)c3)cn2C)cn1C
6 | -0.87 | -5.87 | 12.4 | Cn1cc(NC(=O)c2cc(NC(=O)c3cc(NC=O)cn3C)cn2C)cc1C(=O)NCCC(=N)N [STALLIMYCIN]

From ChEMBL document CHEMBL1133011, “DNA binding, solubility, and partitioning characteristics of extended lexitropsins” (J Med Chem, 2000)
